Data on 24 compounds can be found in patent publication US20230159453A1 (COCRYSTAL PHARMA, INC., priority 2020, published 2023).

In this assay the target is SARS2 protease (Severe acute respiratory syndrome coronavirus 2, UniProt P0DTD1). As to the kind of experiment: SARS-CoV-2 protease inhibition assay (SARS2 FRET protease assay). In kind it is biochemical. The following applies: SARS-CoV-2 protease 25 nM, FRET, peptide substrate 1.3 μM, 30 minutes at 30° C., compounds 20 μM to 1.0 nM; read-out: IC50.
As for `O=C(N[C@@H](CC1CCCCC1)C(=O)N[C@@H](C[C@@H]1CC2(CCCC2)NC1=O)C(=O)C(=O)NC1CC1)OC1CCCC1Cc1cccc(Cl)c1` (stereo partly drawn) [Compound C159, 2-(3-Chlorobenzyl)cyclopentyl ((2S)-3-cyclohexyl-1-((4-(cyclopropylamino)-3,4-dioxo-1-(2-oxo-1-azaspiro[4.4]nonan-3-yl)butan-2-yl)amino)-1-oxopropan-2-yl)carbamate], the IC50 was 3490 nM. With `CC(C)(c1cccc(Cl)c1)C(OC(=O)N[C@@H](CC1CCCCC1)C(=O)N[C@H](C=O)C[C@@H]1CCNC1=O)c1ccccc1Cl` (stereo partly drawn) [Compound C160, 1-(2-chlorophenyl)-2-(3-chlorophenyl)-2-methylpropyl ((S)-3-cyclohexyl-1-oxo-1-(((S)-1-oxo-3-((S)-2-oxopyrrolidin-3-yl)propan-2-yl)amino)propan-2-yl) carbamate], the IC50 is 24.7 nM. The value for `CC1(C)CC(C[C@@H](C=O)NC(=O)[C@H](CC2CCCCC2)NC(=O)OC(Cc2cccc(Cl)c2)c2cccc(Cl)c2)C(=O)N1` (stereo partly drawn) [Compound C162, 1,2-Bis(3-Chlorophenyl)ethyl ((2S)-3-cyclohexyl-1-((1-(5,5-dimethyl-2-oxopyrrolidin-3-yl)-3-oxopropan-2-yl)amino)-1-oxopropan-2-yl)carbamate] was 92.2 nM; that for `CC(C)C[C@H](NC(=O)OC(c1ccccc1)C(C)(C)c1cccc(Cl)c1)C(=O)N[C@@H](CC1CC(C)(C)NC1=O)C(=O)C(=O)NC1CC1` (stereo partly drawn) [Compound C163, 2-(3-Chlorophenyl)-2-methyl-1-phenylpropyl ((2S)-1-((4-(cyclopropylamino)-1-(5,5-dimethyl-2-oxopyrrolidin-3-yl)-3,4-dioxobutan-2-yl)amino)-4-methyl-1-oxopentan-2-yl) carbamate] was 1810 nM. With `CCCC[C@H](NC(=O)OC(c1ccccc1)C(C)(C)c1cccc(Cl)c1)C(=O)N[C@@H](CC1CCNC1=O)C(=O)C(N)=O` (stereo partly drawn) [Compound C164, 2-(3-Chlorophenyl)-2-methyl-1-phenylpropyl ((S)-1-(((S)-4-amino-3,4-dioxo-1-((S)-2-oxopyrrolidin-3-yl)butan-2-yl)amino)-1-oxohexan-2-yl) carbamate], the IC50 was 144 nM. With `O=C[C@H](CC1CC2(CCCC2)NC1=O)NC(=O)[C@H](CC1CCCCC1)NC(=O)OC1CCCC1Cc1cccc(Cl)c1` (stereo partly drawn) [Compound C165, 2-(3-chlorobenzyl)cyclopentyl ((2S)-3-cyclohexyl-1-oxo-1-((1-oxo-3-(2-oxo-1-azaspiro[4.4]nonan-3-yl)propan-2-yl)amino)propan-2-yl)carbamate], the IC50 stood at 106 nM. The value for `CC(C)C[C@H](NC(=O)OC(c1ccccc1)C(C)(C)c1cccc(Cl)c1)C(=O)N[C@@H](C[C@@H]1CCNC1=O)C(=O)C(=O)NC1CC1` (stereo partly drawn) [Compound C166, 2-(3-Chlorophenyl)-2-methyl-1-phenylpropyl ((S)-1-(((S)-4-(cyclopropylamino)-3,4-dioxo-1-((S)-2-oxopyrrolidin-3-yl)butan-2-yl)amino)-4-methyl-1-oxopentan-2-yl)carbamate] was 14 nM; that for `CC1(C)CC(C[C@H](NC(=O)[C@H](CC2CCCCC2)NC(=O)OC2CCCC2Cc2cccc(Cl)c2)C(=O)C(=O)NC2CC2)C(=O)N1` (stereo partly drawn) [Compound C167, 2-(3-Chlorobenzyl)cyclopentyl ((2S)-3-cyclohexyl-1-((4-(cyclopropylamino)-1-(5,5-dimethyl-2-oxopyrrolidin-3-yl)-3,4-dioxobutan-2-yl)amino)-1-oxopropan-2-yl)carbamate] was 2050 nM; that for `O=C(N[C@@H](CC1CCCCC1)C(=O)N[C@@H](CC1CC2(CCCCC2)NC1=O)C(=O)CO)OCc1cccc(Cl)c1` (stereo partly drawn) [Compound C168, 3-Chlorobenzyl ((2S)-3-cyclohexyl-1-(((2S)-4-hydroxy-3-oxo-1-(2-oxo-1-azaspiro[4.5]decan-3-yl)butan-2-yl)amino)-1-oxopropan-2-yl)carbamate] was 5440 nM.

On to `CC(C)C[C@H](NC(=O)OC1(Cc2cccc(Cl)c2)CCC1)C(=O)N[C@@H](CC1CC2(CCOCC2)NC1=O)C(=O)C(=O)NC1CC1` (stereo partly drawn) [Compound C169, 1-(3-chlorobenzyl)cyclobutyl ((2S)-1-((4-(cyclopropylamino)-3,4-dioxo-1-(2-oxo-8-oxa-1-azaspiro[4.5]decan-3-yl)butan-2-yl)amino)-4-methyl-1-oxopentan-2-yl)carbamate], for which the IC50 came out at 5990 nM. The value for `CS(=O)(=O)N1CCC2(CC1)CC(C[C@H](NC(=O)[C@H](CC1CCCCC1)NC(=O)OCc1cccc(Cl)c1)C(=O)C(=O)NC1CC1)C(=O)N2` (stereo partly drawn) [Compound C170, 3-Chlorobenzyl ((2S)-3-cyclohexyl-1-(((2S)-4-(cyclopropylamino)-1-(8-(methylsulfonyl)-2-oxo-1,8-diazaspiro[4.5]decan-3-yl)-3,4-dioxobutan-2-yl)amino)-1-oxopropan-2-yl)carbamate] was 1840 nM; that for `O=C(N[C@@H](CC1CCCCC1)C(=O)N[C@@H](CC1CC2(CCCCC2)NC1=O)C(=O)C(=O)N1CCCC1)c1cc2ccccc2[nH]1` (stereo partly drawn) [Compound C171, N-((2S)-3-cyclohexyl-1-((3,4-dioxo-1-(2-oxo-1-azaspiro[4.5]decan-3-yl)-4-(pyrrolidin-1-yl)butan-2-yl)amino)-1-oxopropan-2-yl)-1H-indole-2-carboxamide] was 11000 nM. `CC1(C)CC(C[C@H](NC(=O)[C@H](CC2CCCCC2)NC(=O)OC(Cc2cccc(Cl)c2)c2cccc(Cl)c2)C(=O)C(=O)NC2CC2)C(=O)N1` (stereo partly drawn) [Compound C172, 1,2-Bis (3-Chlorophenyl) ethyl ((2S)-3-cyclohexyl-1-((4-(cyclopropylamino)-1-(5,5-dimethyl-2-oxopyrrolidin-3-yl)-3,4-dioxobutan-2-yl)amino)-1-oxopropan-2-yl)carbamate]: the IC50 was found to be 1670 nM. `O=C(N[C@@H](CC1CCCCC1)C(=O)N[C@@H](C[C@@H]1CCNC1=O)C(=O)C(=O)NC1CC1)OCc1cccc(Cl)c1` [Compound C173]: the IC50 came to 1430 nM. With `CCCC[C@H](NC(=O)OC(c1ccccc1)C(C)(C)c1cccc(Cl)c1)C(=O)N[C@@H](CC1CCNC1=O)C(=O)C(=O)NC1CC1` (stereo partly drawn) [Compound C174, 2-(3-Chlorophenyl)-2-methyl-1-phenylpropyl ((S)-1-(((S)-4-(cyclopropylamino)-3,4-dioxo-1-((S)-2-oxopyrrolidin-3-yl)butan-2-yl)amino)-1-oxohexan-2-yl) carbamate], the IC50 is 8.2 nM. On to `O=C(N[C@@H](CC1CCCCC1)C(=O)NC(CC1CC2(CCOCC2)NC1=O)C(=O)C(=O)NC1CC1)OCc1cccc(Cl)c1` (stereo partly drawn) [Compound C176, 3-Chlorobenzyl ((2S)-3-cyclohexyl-1-((4-(cyclopropylamino)-3,4-dioxo-1-(2-oxo-8-oxa-1-azaspiro[4.5]decan-3-yl)butan-2-yl)amino)-1-oxopropan-2-yl)carbamate], for which the IC50 worked out at 1570 nM.

As to `CS(=O)(=O)N1CCC2(CC1)CC(CC(NC(=O)[C@H](CC1CCCCC1)NC(=O)OC1CCCC1Cc1cccc(Cl)c1)C(=O)C(=O)NC1CC1)C(=O)N2` (stereo partly drawn) [Compound C177, 2-(3-chlorobenzyl)cyclopentyl ((2S)-3-cyclohexyl-1-((4-(cyclopropylamino)-1-(8-(methylsulfonyl)-2-oxo-1,8-diazaspiro[4.5]decan-3-yl)-3,4-dioxobutan-2-yl)amino)-1-oxopropan-2-yl)carbamate], the IC50 came out at 4390 nM. For the compound `CS(=O)(=O)N1CCC2(CC1)CC(C[C@@H](C=O)NC(=O)[C@H](CC1CCCCC1)NC(=O)OCc1cccc(Cl)c1)C(=O)N2` (stereo partly drawn) [Compound C178, 3-Chlorobenzyl ((2S)-3-cyclohexyl-1-(((2S)-1-(8-(methylsulfonyl)-2-oxo-1,8-diazaspiro[4.5]decan-3-yl)-3-oxopropan-2-yl)amino)-1-oxopropan-2-yl)carbamate], the IC50 worked out at 71 nM. Take `COc1cccc2[nH]c(C(=O)N[C@@H](CC3CCCCC3)C(=O)NC(C=O)CC3CC4(CCOCC4)NC3=O)cc12` (stereo partly drawn) [Compound C179, N-((2S)-3-cyclohexyl-1-oxo-1-((1-oxo-3-(2-oxo-8-oxa-1-azaspiro[4.5]decan-3-yl)propan-2-yl)amino)propan-2-yl)-4-methoxy-1H-indole-2-carboxamide]: the IC50 was 0.015 nM. `CC1(C)CC(CC(C=O)NC(=O)[C@H](CC2CCCCC2)NC(=O)OC(Cc2cccc(Cl)c2)c2ccccc2)C(=O)N1` (stereo partly drawn) [Compound C180, 2-(3-Chlorophenyl)-1-phenylethyl ((2S)-3-cyclohexyl-1-((1-(5,5-dimethyl-2-oxopyrrolidin-3-yl)-3-oxopropan-2-yl)amino)-1-oxopropan-2-yl) carbamate]: the concentration for half-maximal inhibition (IC50) came to 56.6 nM. `CC(C)(c1cccc(Cl)c1)[C@@H](OC(=O)N[C@@H](CC1CCCCC1)C(=O)N[C@@H](C[C@@H]1CCNC1=O)C(=O)C(N)=O)c1cccc(F)c1` [Compound C182]: the 50% inhibitory concentration (IC50) is 2470 nM.

`CC(C)(c1cccc(Cl)c1)[C@H](OC(=O)N[C@@H](CC1CCCCC1)C(=O)N[C@@H](C[C@@H]1CCNC1=O)C(=O)C(N)=O)c1cccc(F)c1` [Compound C183]: the IC50 turned out to be 249 nM. `CC(C)(c1cccc(Cl)c1)[C@@H](OC(=O)N[C@@H](CC1CCCCC1)C(=O)N[C@@H](C[C@@H]1CCNC1=O)C(=O)C(=O)NC1CC1)c1cccc(F)c1` [Compound C184, (S)-2-(3-chlorophenyl)-1-(3-fluorophenyl)-2-methylpropyl ((S)-3-cyclohexyl-1-(((S)-4-(cyclopropylamino)-3,4-dioxo-1-((S)-2-oxopyrrolidin-3-yl)butan-2-yl)amino)-1-oxopropan-2-yl)carbamate]: the concentration for half-maximal inhibition (IC50) worked out at 2320 nM.

As to `CC(C)(c1cccc(Cl)c1)[C@H](OC(=O)N[C@@H](CC1CCCCC1)C(=O)N[C@@H](C[C@@H]1CCNC1=O)C(=O)C(=O)NC1CC1)c1cccc(F)c1` [Compound C185, (R)-2-(3-chlorophenyl)-1-(3-fluorophenyl)-2-methylpropyl ((S)-3-cyclohexyl-1-(((S)-4-(cyclopropylamino)-3,4-dioxo-1-((S)-2-oxopyrrolidin-3-yl)butan-2-yl)amino)-1-oxopropan-2-yl)carbamate], the IC50 is 143 nM.

By IC50 is commonly meant the concentration needed to halve the response being measured.
